Measurements reported in patent US20160256457A1, “METHODS FOR TREATING OR PREVENTING ACUTE VASCULAR LEAK” (Beth Israel Deaconess Medical Center, Inc., priority 2014, published 2016).
“Also recorded” adds a separate entry of the source.

Key:
[1] = system: Primary human dermal microvascular endothelial cells; test: ECIS steady-state barrier function of confluent endothelial monolayers; type: cell-based; settings: for endothelial barrier function (ECIS) compared to other Src inhibitors / endothelial barrier function (ECIS) compared to benchmark agents: bosutinib 300 nM; for endothelial barrier function (ECIS) compared to other Src inhibitors: dasatinib 300 nM, PP2 10 μM, monitored ~22 hours, FIG. 7; for endothelial barrier function (ECIS) compared to benchmark agents: HGF 100 ng/ml (1200 nM), APC 500 nM, monitored ~18 hours, FIG. 6
Protocol: (§1) Primary human dermal microvascular endothelial cells were grown to confluence. […] Data are mean±SEM of three independent experiments.
as §1, §1

[2] = system: Primary bovine aortic endothelial cells; test: ECIS barrier function, dose response over 72 hours; type: cell-based; settings: FIG. 2; for vascular barrier function (ECIS resistance, normalized to 1): single doses, 10 nM to 3 μM, monitored 72 hours
Protocol: Primary bovine aortic endothelial cells were grown to confluence. Steady state barrier function was monitored by ECIS for 24 hours and normalized to a value of 1. […] Data are mean±SEM of three independent experiments.

[3] = system: Primary human dermal microvascular endothelial cells; test: Thrombin- and histamine-induced vascular permeability assays (ECIS), pretreatment; type: cell-based; settings: for protection to histamine challenge / protection to thrombin challenge: 300 nM for 30 min; for protection to histamine challenge: then histamine 300 μM, FIG. 3B; for protection to thrombin challenge: then thrombin 2.5 U/ml, FIG. 3A
Protocol: For all assays, primary human dermal microvascular endothelial cells were grown to confluence. Steady state barrier function was monitored by ECIS and normalized to a value of 1. […] Data are mean±SEM of three independent experiments.

[4] = system: Primary human dermal microvascular endothelial monolayers; test: Confocal imaging of actin and VE-cadherin junctions during permeability challenge; type: cell-based
Description: Samples were fixed and stained for actin (i) and the junctional marker VE-cadherin (ii) before imaging by confocal microscopy. To assess quality of endothelial junctions (see B), image thresholding was applied to the VE-cadherin images to delineate the junctions (line traces in [iii]). […] Scale bar represents 10 μm.
Primary human dermal microvascular endothelial monolayers were challenged with either Thrombin (Thr) or Histamine (His) as described above for FIG. 5A. Quantitative analysis of (i) total junctional area per field and (ii) VE-cadherin intensity within junctions were performed to assess maintenance of junctional integrity. […] Data are mean±SEM of three independent experiments.

[5] = system: FIP rats; test: Polymicrobial sepsis model (feces-induced peritonitis; FIP), intravital microscopy of the hindlimb; type: in vivo, rat
Protocol: Disease onset was initiated by tail vein injection of a solution of saline and rat feces. […] Microvascular parameters were measured through intravital microscopy of the hindlimb at baseline, 3 hr and 5 hr post FIP onset. […] Data are representative of two separate pilot experiments.

[6] = target: Src (Homo sapiens, UniProt P12931); settings: cited from earlier work
Chain of Src (P12931 whole entry, species assumed): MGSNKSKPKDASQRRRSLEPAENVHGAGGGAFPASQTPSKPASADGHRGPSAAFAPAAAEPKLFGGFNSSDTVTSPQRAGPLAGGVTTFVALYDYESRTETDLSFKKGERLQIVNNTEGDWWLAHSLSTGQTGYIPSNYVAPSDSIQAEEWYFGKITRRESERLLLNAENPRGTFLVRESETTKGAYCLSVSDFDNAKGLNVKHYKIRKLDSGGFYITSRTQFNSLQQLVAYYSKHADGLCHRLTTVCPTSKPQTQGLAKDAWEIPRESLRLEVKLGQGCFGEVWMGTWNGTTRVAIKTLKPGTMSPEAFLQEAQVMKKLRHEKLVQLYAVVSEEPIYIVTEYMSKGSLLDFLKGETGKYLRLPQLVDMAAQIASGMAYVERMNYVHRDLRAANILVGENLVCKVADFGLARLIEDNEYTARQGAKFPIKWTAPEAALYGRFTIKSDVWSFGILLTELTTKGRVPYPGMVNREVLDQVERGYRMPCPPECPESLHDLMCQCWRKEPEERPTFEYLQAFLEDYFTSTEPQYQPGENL

[7] = imaging-based analysis, FIGS. 5A and 5B

CC(C)(C)n1nc(-c2ccc(Cl)cc2)c2c(N)ncnc21 [PP2, 3-(4-chlorophenyl)-1-(1,1-dimethylethyl)-1H-pyr-azolo[3,4-d]pyrimidin-4-amine]
endothelial barrier function (ECIS) compared to other Src inhibitors [1]: greatly reduced, endothelial barrier function; also recorded: sustained decreases in barrier function

COc1cc(Nc2c(C#N)cnc3cc(OCCCN4CCN(C)CC4)c(OC)cc23)c(Cl)cc1Cl [bosutinib]
endothelial barrier function (ECIS) compared to benchmark agents [1]: exhibits unprecedented efficacy and duration of action | endothelial barrier function (ECIS) compared to benchmark agents ([1]; listed as Bosutinib): significant and sustained increase in barrier function | endothelial barrier function (ECIS) compared to other Src inhibitors [1]: sustained increase in barrier function | vascular barrier function (ECIS resistance, normalized to 1) ([1]; single 300 nM dose, monitored 3 hours, FIG. 1): profoundly enhanced base-line barrier properties; also recorded: increases in resistance | duration of sustained barrier enhancement ([2]; longest experiments conducted thus far): > 72 h | vascular barrier function (ECIS resistance, normalized to 1) [2]: sustained, dose-dependent increase in vascular barrier function | vascular barrier function (ECIS resistance, normalized to 1) ([2]; listed as Bosutinib): sustained barrier enhancement effects in a dose-dependent manner | protection to histamine challenge [3]: 100% | protection to thrombin challenge [3]: ~50% | protection against pro-leak stimuli by pretreatment ([3]; thrombin, histamine, Ang-II and TNF-α): conferred profound protection against a range of pro-leak stimuli | endothelial junction continuity and gap formation ([4]; 300 nM 30 min pretreatment, thrombin 2.5 U/ml or histamine 300 μM for 30 min, FIG. 5A): maintains continuous junctions and cortical actin during challenge | VE-cadherin and cortical actin at the intercellular junctions [4, 7]: increase in VE-cadherin and cortical actin at the intercellular junctions | actin stress fibers in endothelial cells [4, 7]: decrease in actin stress fibers | total junctional area per field ([4]; thrombin or histamine challenge, FIG. 5B): significantly increased junctional area compared to vehicle controls | percent oxygen saturation ([5]; 10 mg/kg loading dose at 30 min, 5 mg/kg every two hours, tail vein, FIG. 8C): effectively preserved; also recorded: similarly maintained in bosutinib-treated, but not control, FIP rats | capillary diameter ([5]; 10 mg/kg loading dose at 30 min, 5 mg/kg every two hours, tail vein, FIG. 8D): unaltered; also recorded: unchanged in both control and bosutinib rats | red blood cell (RBC) velocity ([5]; 10 mg/kg loading dose at 30 min, 5 mg/kg every two hours, tail vein, baseline, 3 hr and 5 hr post FIP onset, FIG. 8A): rapidly decline following sepsis onset in control rats, but not in bosutinib-treated rats | RBC supply rate ([5]; 10 mg/kg loading dose at 30 min, 5 mg/kg every two hours, tail vein, baseline, 3 hr and 5 hr post FIP onset, FIG. 8B): rapidly decline following sepsis onset in control rats, but not in bosutinib-treated rats | microvascular flow ([5]; pilot studies, septic rats, FIGS. 8A and 8B): effectively preserved | efficacy against Src kinase [6]: low nanomolar range

Cc1ccc(NC(=O)c2ccc(CN3CCN(C)CC3)cc2)cc1Nc1nccc(-c2cccnc2)n1 [imatinib, Imatinib]
protection to histamine challenge [3]: 5-10% | protection to thrombin challenge [3]: 5-10%

activated protein C [APC]
endothelial barrier function (ECIS) compared to benchmark agents [1]: increase in barrier function that was relatively minor in both magnitude and duration

hepatocyte growth factor [HGF]
endothelial barrier function (ECIS) compared to benchmark agents [1]: initially promoted a similar increase, which was rapidly reversed after ˜20 minutes leading ultimately to a sustained decrease in barrier function
